Source: PubChem BioAssay (NCI)
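Interpolation was linear, between the two tested concentrations surrounding the appropriate level; five concentrations were tested over 48 hours in 96-well plates. GI50 marks 50% less growth. TGI marks complete inhibition of growth.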

Tests used:
Assay in all cases: DTP human tumour cell line panel, 48 h
SW-620 colon = tested on: SW-620 colon
U251 CNS = tested on: U251 CNS
COLO 205 colon = tested on: COLO 205 colon
MDA-MB-435 = tested on: MDA-MB-435
SNB-19 CNS = tested on: SNB-19 CNS
SK-MEL-28 melanoma = tested on: SK-MEL-28 melanoma
OVCAR-8 ovarian = tested on: OVCAR-8 ovarian
NCI/ADR-RES ovarian = tested on: NCI/ADR-RES ovarian
HOP-62 NSCLC = tested on: HOP-62 NSCLC
IGROV1 ovarian = tested on: IGROV1 ovarian
CCRF-CEM leukemia = tested on: CCRF-CEM leukemia
SNB-75 CNS = tested on: SNB-75 CNS
EKVX NSCLC = tested on: EKVX NSCLC
SK-MEL-2 melanoma = tested on: SK-MEL-2 melanoma
DU-145 prostate = tested on: DU-145 prostate
MOLT-4 leukemia = tested on: MOLT-4 leukemia
SK-OV-3 ovarian = tested on: SK-OV-3 ovarian
LOX IMVI melanoma = tested on: LOX IMVI melanoma
HL-60(TB) leukemia = tested on: HL-60(TB) leukemia
SF-268 CNS = tested on: SF-268 CNS
HS 578T breast = tested on: HS 578T breast
OVCAR-5 ovarian = tested on: OVCAR-5 ovarian
786-0 renal = tested on: 786-0 renal
HT29 colon = tested on: HT29 colon
HCC-2998 colon = tested on: HCC-2998 colon
SF-539 CNS = tested on: SF-539 CNS
OVCAR-3 ovarian = tested on: OVCAR-3 ovarian
OVCAR-4 ovarian = tested on: OVCAR-4 ovarian
UO-31 renal = tested on: UO-31 renal
SN12C renal = tested on: SN12C renal
RXF 393 renal = tested on: RXF 393 renal
ACHN renal = tested on: ACHN renal
A549 NSCLC = tested on: A549 NSCLC
MDA-MB-231 breast = tested on: MDA-MB-231 breast
NCI-H460 lung = tested on: NCI-H460 lung
HCT-15 colon = tested on: HCT-15 colon
BT-549 breast = tested on: BT-549 breast
NCI-H23 lung = tested on: NCI-H23 lung
CAKI-1 renal = tested on: CAKI-1 renal
HCT-116 colon = tested on: HCT-116 colon
TK-10 renal = tested on: TK-10 renal
UACC-62 melanoma = tested on: UACC-62 melanoma
M14 melanoma = tested on: M14 melanoma
NCI-H522 lung = tested on: NCI-H522 lung
RPMI-8226 leukemia = tested on: RPMI-8226 leukemia
A498 renal = tested on: A498 renal
MALME-3M melanoma = tested on: MALME-3M melanoma
PC-3 prostate = tested on: PC-3 prostate
SF-295 CNS = tested on: SF-295 CNS
K-562 leukemia = tested on: K-562 leukemia
HOP-92 NSCLC = tested on: HOP-92 NSCLC
SK-MEL-5 melanoma = tested on: SK-MEL-5 melanoma
UACC-257 melanoma = tested on: UACC-257 melanoma
MCF7 breast = tested on: MCF7 breast

Q: Which results are given for `CC/C=C\C/C=C\C[C@H]1C/C=C2/C(=O)C=C[C@@H]2C/C=C\CCC(=O)O1`?
A: GI50 (SW-620 colon): 1650 nM; TGI (SW-620 colon): 6040 nM; GI50 (U251 CNS): 1160 nM; TGI (U251 CNS): 3690 nM; GI50 (COLO 205 colon): 1040 nM; TGI (COLO 205 colon): 2820 nM; GI50 (MDA-MB-435): 912 nM; TGI (MDA-MB-435): 2750 nM; GI50 (SNB-19 CNS): 3150 nM; TGI (SNB-19 CNS): 8450 nM; GI50 (SK-MEL-28 melanoma): 1020 nM; TGI (SK-MEL-28 melanoma): 3140 nM; GI50 (OVCAR-8 ovarian): 1140 nM; TGI (OVCAR-8 ovarian): 4190 nM; GI50 (NCI/ADR-RES ovarian): 746 nM; TGI (NCI/ADR-RES ovarian): 1910 nM; GI50 (HOP-62 NSCLC): 1180 nM; TGI (HOP-62 NSCLC): 4650 nM; GI50 (IGROV1 ovarian): 1570 nM; TGI (IGROV1 ovarian): 5900 nM; GI50 (CCRF-CEM leukemia): 1130 nM; TGI (CCRF-CEM leukemia): 7050 nM; GI50 (SNB-75 CNS): 1400 nM; TGI (SNB-75 CNS): 6920 nM; GI50 (EKVX NSCLC): 1510 nM; TGI (EKVX NSCLC): 8300 nM; GI50 (SK-MEL-2 melanoma): 871 nM; TGI (SK-MEL-2 melanoma): 2420 nM; GI50 (DU-145 prostate): 1190 nM; TGI (DU-145 prostate): 5040 nM; GI50 (MOLT-4 leukemia): 976 nM; TGI (MOLT-4 leukemia): 4370 nM; GI50 (SK-OV-3 ovarian): 7180 nM; TGI (SK-OV-3 ovarian): 20100 nM; GI50 (LOX IMVI melanoma): 563 nM; TGI (LOX IMVI melanoma): 1110 nM; GI50 (HL-60(TB) leukemia): 1220 nM; TGI (HL-60(TB) leukemia): 3140 nM; GI50 (SF-268 CNS): 1540 nM; TGI (SF-268 CNS): 9100 nM; GI50 (HS 578T breast): 6080 nM; TGI (HS 578T breast): 33200 nM; GI50 (OVCAR-5 ovarian): 1350 nM; TGI (OVCAR-5 ovarian): 4950 nM; GI50 (786-0 renal): 1400 nM; TGI (786-0 renal): 4970 nM; GI50 (HT29 colon): 828 nM; TGI (HT29 colon): 2040 nM; GI50 (HCC-2998 colon): 871 nM; TGI (HCC-2998 colon): 2320 nM; GI50 (SF-539 CNS): 995 nM; TGI (SF-539 CNS): 3460 nM; GI50 (OVCAR-3 ovarian): 1080 nM; TGI (OVCAR-3 ovarian): 3520 nM; GI50 (OVCAR-4 ovarian): 1320 nM; TGI (OVCAR-4 ovarian): 5660 nM; GI50 (UO-31 renal): 1360 nM; TGI (UO-31 renal): 4940 nM; GI50 (SN12C renal): 1120 nM; TGI (SN12C renal): 9690 nM; GI50 (RXF 393 renal): 686 nM; TGI (RXF 393 renal): 1560 nM; GI50 (ACHN renal): 727 nM; TGI (ACHN renal): 1490 nM; GI50 (A549 NSCLC): 1220 nM; TGI (A549 NSCLC): 10900 nM; GI50 (MDA-MB-231 breast): 1070 nM; TGI (MDA-MB-231 breast): 6030 nM; GI50 (NCI-H460 lung): 1460 nM; TGI (NCI-H460 lung): 16300 nM; GI50 (HCT-15 colon): 735 nM; TGI (HCT-15 colon): 2150 nM; GI50 (BT-549 breast): 1100 nM; TGI (BT-549 breast): 3610 nM; GI50 (NCI-H23 lung): 793 nM; TGI (NCI-H23 lung): 2790 nM; GI50 (CAKI-1 renal): 1290 nM; TGI (CAKI-1 renal): 6350 nM; GI50 (HCT-116 colon): 634 nM; TGI (HCT-116 colon): 1470 nM; GI50 (TK-10 renal): 1260 nM; TGI (TK-10 renal): 3430 nM; GI50 (UACC-62 melanoma): 767 nM; TGI (UACC-62 melanoma): 2400 nM; GI50 (M14 melanoma): 1020 nM; TGI (M14 melanoma): 4610 nM; GI50 (NCI-H522 lung): 524 nM; TGI (NCI-H522 lung): 1420 nM; GI50 (RPMI-8226 leukemia): 847 nM; TGI (RPMI-8226 leukemia): 2430 nM; GI50 (A498 renal): 5380 nM; TGI (A498 renal): 10200 nM; GI50 (MALME-3M melanoma): 1960 nM; TGI (MALME-3M melanoma): 8040 nM; GI50 (PC-3 prostate): 1180 nM; TGI (PC-3 prostate): 4360 nM; GI50 (SF-295 CNS): 1830 nM; TGI (SF-295 CNS): 6860 nM; GI50 (K-562 leukemia): 1170 nM; TGI (K-562 leukemia): 9100 nM; GI50 (HOP-92 NSCLC): 3930 nM; TGI (HOP-92 NSCLC): 10400 nM; GI50 (SK-MEL-5 melanoma): 776 nM; TGI (SK-MEL-5 melanoma): 2100 nM; GI50 (UACC-257 melanoma): 1850 nM; TGI (UACC-257 melanoma): 7820 nM; GI50 (MCF7 breast): 936 nM; TGI (MCF7 breast): 7510 nM
